This passage reports IC50 results from ChEMBL document CHEMBL1129937, “Synthesis and dihydrofolate reductase inhibitory activities of 2,4-diamino-5-deaza and 2,4-diamino-5,10-dideaza lipophilic antifolates” (J Med Chem, 1997).

pIC50: −log10 of the molar value.

Test [1] concerns the target T1, Dihydrofolate reductase (Pneumocystis carinii, UniProt P16184).
T1 sequence (P16184 whole entry): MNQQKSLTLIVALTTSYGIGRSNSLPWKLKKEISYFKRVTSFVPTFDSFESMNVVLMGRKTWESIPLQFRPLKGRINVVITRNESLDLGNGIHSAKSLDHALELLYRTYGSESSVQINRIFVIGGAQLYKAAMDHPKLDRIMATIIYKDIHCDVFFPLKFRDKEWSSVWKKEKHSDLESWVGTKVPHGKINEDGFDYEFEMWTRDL
Description: Inhibitory concentration against Dihydrofolate reductase from Pneumocystis carinii (pc)

Test [2] concerns the target T2, Dihydrofolate reductase (Rattus norvegicus, UniProt Q920D2).
T2 sequence (Q920D2 whole entry): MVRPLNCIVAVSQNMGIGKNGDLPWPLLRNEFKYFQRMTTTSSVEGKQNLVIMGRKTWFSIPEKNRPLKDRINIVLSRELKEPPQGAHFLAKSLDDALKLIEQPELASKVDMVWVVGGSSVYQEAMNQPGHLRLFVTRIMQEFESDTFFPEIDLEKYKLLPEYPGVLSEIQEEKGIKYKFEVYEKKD
Description: Inhibitory concentration against Dihydrofolate reductase from Rat liver (rl)

Test [3] deals with T3, Bifunctional dihydrofolate reductase-thymidylate synthase (Toxoplasma gondii, UniProt Q07422).
T3 sequence (Q07422 whole entry): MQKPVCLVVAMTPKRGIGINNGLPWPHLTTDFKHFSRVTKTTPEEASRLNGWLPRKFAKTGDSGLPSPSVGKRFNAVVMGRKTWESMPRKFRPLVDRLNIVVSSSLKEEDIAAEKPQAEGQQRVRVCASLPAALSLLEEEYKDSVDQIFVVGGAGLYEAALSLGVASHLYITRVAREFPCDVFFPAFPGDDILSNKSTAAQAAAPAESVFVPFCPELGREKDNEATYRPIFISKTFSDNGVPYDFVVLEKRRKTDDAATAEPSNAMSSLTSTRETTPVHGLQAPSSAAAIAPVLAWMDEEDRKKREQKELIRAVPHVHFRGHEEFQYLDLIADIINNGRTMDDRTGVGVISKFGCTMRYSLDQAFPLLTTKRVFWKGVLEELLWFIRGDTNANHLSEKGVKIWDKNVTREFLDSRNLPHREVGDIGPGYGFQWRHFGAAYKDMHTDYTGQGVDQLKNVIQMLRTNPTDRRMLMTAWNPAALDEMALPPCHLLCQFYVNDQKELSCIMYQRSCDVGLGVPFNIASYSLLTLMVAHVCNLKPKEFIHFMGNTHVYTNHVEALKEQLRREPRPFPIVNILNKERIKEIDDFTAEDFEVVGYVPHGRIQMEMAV
Description: Inhibitory concentration against Dihydrofolate reductase from Toxoplasma gondii (tg)

On to `COc1ccc(CCc2cnc3nc(N)nc(N)c3c2)cc1OC`, for which the pIC50 (usually the negative decadic logarithm of the IC50, by convention in mol/L) against Dihydrofolate reductase [1] is 5.85; at Dihydrofolate reductase [2], 6.21; in test [3], 6.70.
As to `COc1cc(/C=C/c2cnc3nc(N)nc(N)c3c2)cc(OC)c1OC`, the pIC50 is less than 5.30 against Dihydrofolate reductase [1], 4.89 at Dihydrofolate reductase [2] and 5.85 in test [3].
The matching figures for `COc1cc(CCC2CNc3nc(N)nc(N)c3C2)cc(OC)c1OC` (stereo unspecified): 4.21, 5.21 and 6.33.
As for `COc1ccc(/C=C/c2cnc3nc(N)nc(N)c3c2)cc1OC`, the pIC50 against Dihydrofolate reductase [1] is 5.59; against Dihydrofolate reductase [2], 5.68; in test [3] it was 5.85.
Regarding `COc1ccc(CCC2CNc3nc(N)nc(N)c3C2)cc1OC` (stereo unspecified), the figures for the negative logarithm of the IC50 (pIC50) (against Dihydrofolate reductase [2]; in test [3]) were 5.68 and 5.96, respectively.
For `CCN(Cc1cnc2nc(N)nc(N)c2c1)c1cc(OC)c(OC)c(OC)c1`, the results for the pIC50 (against Dihydrofolate reductase [1]; against Dihydrofolate reductase [2]; in test [3]) were 6.72, 6.92 and 7.31, respectively.
The matching figures for `COc1cc(N(C=O)Cc2cnc3nc(N)nc(N)c3c2)cc(OC)c1OC`: 4.73, 5.13 and 5.96.
On to `COc1cc(NCc2cnc3nc(N)nc(N)c3c2)cc(OC)c1OC`, for which the pIC50 on Dihydrofolate reductase [2] was 5.72; in test [3] it was 6.52.
In the case of `COc1ccc(CCc2cnc3nc(N)nc(N)c3c2)cc1`, the negative logarithm of the IC50 (pIC50) against Dihydrofolate reductase [1] was 6.54; against Dihydrofolate reductase [2] it was 6.59; in test [3], 6.60.
Regarding `COc1cc(CCc2cnc3nc(N)nc(N)c3c2)cc(OC)c1OC`, the results for the pIC50 (against Dihydrofolate reductase [2]; in test [3]) were 5.94 and 6.70, respectively.
As for `COc1cc(N(C)Cc2cnc3nc(N)nc(N)c3c2)cc(OC)c1OC`, at Dihydrofolate reductase [2], the pIC50 is 6.55.
Regarding `COc1ccc(/C=C/c2cnc3nc(N)nc(N)c3c2)cc1`, the pIC50 on Dihydrofolate reductase [1] was 5.28; at Dihydrofolate reductase [2], 4.93; in test [3], 5.82.
